Assay results published in ChEMBL document CHEMBL3885861, “Open TG-GATES”.

Organism: Rattus norvegicus
Assay: Open TG-GATES - Regimen: Daily Repeat
Type: toxicity, organism-based, Sprague-Dawley
Design: regimen Daily Repeat, gender Male, age 6 weeks
Conditions: in vivo, po, 1000 mg/kg, route gavage, dose level High; for APTT / Bas / Eos / Fbg / Hb / Ht / Lym / MCH / MCHC / MCV / Mono / Neu / PT / Plat / RBC / Ret / WBC: tissue Blood; for KIDNEY_L / KIDNEY_R / KIDNEY_TOTAL: tissue Kidney; for LIVER: tissue Liver; for A/G / ALP / ALT / AST / BUN / CRE / Ca / Cl / DBIL / GLC / IP / K / LDH / Na / PL / RALB / TBIL / TC / TG / TP / gamma-GTP: tissue Plasma

CCCCNC(=O)NS(=O)(=O)c1ccc(C)cc1 [TOLBUTAMIDE]
TERMINAL_BW (72 h, time 3 day): 225.8 g | APTT (72 h, time 3 day): 17.7 s | Bas (72 h, time 3 day): 0% | Eos (72 h, time 3 day): 1% | Fbg (72 h, time 3 day): 301.6 mg/dL | Hb (72 h, time 3 day): 13.7 g/dL | Ht (72 h, time 3 day): 41.6% | Lym (72 h, time 3 day): 81% | MCH (72 h, time 3 day): 21.2 pg | MCHC (72 h, time 3 day): 33% | MCV (72 h, time 3 day): 64.2 fL | Mono (72 h, time 3 day): 2.2% | Neu (72 h, time 3 day): 15.2% | PT (72 h, time 3 day): 12.8 s | Plat (72 h, time 3 day): 129.6 x10_4/uL | RBC (72 h, time 3 day): 647.4 x10_4/ul | Ret (72 h, time 3 day): 4.2% | WBC (72 h, time 3 day): 89.2 x10_2/uL | KIDNEY_L (72 h, time 3 day): 1 g | KIDNEY_R (72 h, time 3 day): 1 g | KIDNEY_TOTAL (72 h, time 3 day): 2.1 g | LIVER (72 h, time 3 day): 11.5 g | A/G (72 h, time 3 day): 0.9 | ALP (72 h, time 3 day): 1487 IU/L | ALT (72 h, time 3 day): 40.8 IU/L | AST (72 h, time 3 day): 69.6 IU/L | BUN (72 h, time 3 day): 12.8 mg/dL | CRE (72 h, time 3 day): 0.2 mg/dL | Ca (72 h, time 3 day): 11 mg/dL | Cl (72 h, time 3 day): 105.2 meq/L | DBIL (72 h, time 3 day): 0.004 mg/dL | GLC (72 h, time 3 day): 172 mg/dL | IP (72 h, time 3 day): 7.9 mg/dL | K (72 h, time 3 day): 3.9 meq/L | LDH (72 h, time 3 day): 75.6 IU/L | Na (72 h, time 3 day): 142.4 meq/L | PL (72 h, time 3 day): 144 mg/dL | RALB (72 h, time 3 day): 2.6 g/dL | TBIL (72 h, time 3 day): 0.06 mg/dL | TC (72 h, time 3 day): 76.8 mg/dL | TG (72 h, time 3 day): 68 mg/dL | TP (72 h, time 3 day): 5.5 g/dL | gamma-GTP (72 h, time 3 day): 1 IU/L | TERMINAL_BW ([…], time 7 day): 255.2 g | TERMINAL_BW ([…], time 14 day): 306.7 g | TERMINAL_BW ([…], time 28 day): 411.9 g | APTT ([…], time 7 day): 18.1 s | Bas ([…], time 7 day): 0.4% | Eos ([…], time 7 day): 0.6% | Fbg ([…], time 7 day): 267.4 mg/dL | Hb ([…], time 7 day): 13.7 g/dL | Ht ([…], time 7 day): 41.4% | Lym ([…], time 7 day): 80% | MCH ([…], time 7 day): 20.5 pg | MCHC ([…], time 7 day): 33.1% | MCV ([…], time 7 day): 61.9 fL | Mono ([…], time 7 day): 2.4% | Neu ([…], time 7 day): 16.2% | PT ([…], time 7 day): 12.9 s | Plat ([…], time 7 day): 112 x10_4/uL | RBC ([…], time 7 day): 669.6 x10_4/ul | Ret ([…], time 7 day): 5.3% | WBC ([…], time 7 day): 138.8 x10_2/uL | APTT ([…], time 14 day): 19.2 s | Bas ([…], time 14 day): 0.4% | Eos ([…], time 14 day): 0.8% | Fbg ([…], time 14 day): 320 mg/dL | Hb ([…], time 14 day): 14.3 g/dL | Ht ([…], time 14 day): 43.7% | Lym ([…], time 14 day): 82.8% | MCH ([…], time 14 day): 19.3 pg | MCHC ([…], time 14 day): 32.7% | MCV ([…], time 14 day): 59.1 fL | Mono ([…], time 14 day): 1.8% | Neu ([…], time 14 day): 13.8% | PT ([…], time 14 day): 12.5 s | Plat ([…], time 14 day): 127.9 x10_4/uL | RBC ([…], time 14 day): 740 x10_4/ul | Ret ([…], time 14 day): 4.3% | WBC ([…], time 14 day): 116.4 x10_2/uL | APTT ([…], time 28 day): 25 s | Bas ([…], time 28 day): 0.2% | Eos ([…], time 28 day): 1% | Fbg ([…], time 28 day): 269.5 mg/dL | Hb ([…], time 28 day): 15 g/dL | Ht ([…], time 28 day): 45% | Lym ([…], time 28 day): 84.5% | MCH ([…], time 28 day): 18.6 pg | MCHC ([…], time 28 day): 33.5% | MCV ([…], time 28 day): 55.6 fL | Mono ([…], time 28 day): 2% | Neu ([…], time 28 day): 11.2% | PT ([…], time 28 day): 13.5 s | Plat ([…], time 28 day): 102.5 x10_4/uL | RBC ([…], time 28 day): 808.8 x10_4/ul | Ret ([…], time 28 day): 2.1% | WBC ([…], time 28 day): 118.3 x10_2/uL | KIDNEY_L ([…], time 7 day): 1.1 g | KIDNEY_R ([…], time 7 day): 1.1 g | KIDNEY_TOTAL ([…], time 7 day): 2.2 g | KIDNEY_L ([…], time 14 day): 1.2 g | KIDNEY_R ([…], time 14 day): 1.2 g | KIDNEY_TOTAL ([…], time 14 day): 2.4 g | KIDNEY_L ([…], time 28 day): 1.4 g | KIDNEY_R ([…], time 28 day): 1.3 g | KIDNEY_TOTAL ([…], time 28 day): 2.7 g | LIVER ([…], time 7 day): 12.3 g | LIVER ([…], time 14 day): 15 g | LIVER ([…], time 28 day): 18.7 g | A/G ([…], time 7 day): 0.9 | ALP ([…], time 7 day): 1609.6 IU/L | ALT ([…], time 7 day): 48.6 IU/L | AST ([…], time 7 day): 71.4 IU/L | BUN ([…], time 7 day): 14.8 mg/dL | CRE ([…], time 7 day): 0.2 mg/dL | Ca ([…], time 7 day): 10.7 mg/dL | Cl ([…], time 7 day): 104 meq/L | DBIL ([…], time 7 day): 0.008 mg/dL | GLC ([…], time 7 day): 189.6 mg/dL | IP ([…], time 7 day): 7.7 mg/dL | K ([…], time 7 day): 4 meq/L | LDH ([…], time 7 day): 55.8 IU/L | Na ([…], time 7 day): 141.8 meq/L | PL ([…], time 7 day): 151.8 mg/dL | RALB ([…], time 7 day): 2.5 g/dL | TBIL ([…], time 7 day): 0.052 mg/dL | TC ([…], time 7 day): 74.2 mg/dL | TG ([…], time 7 day): 94.2 mg/dL | TP ([…], time 7 day): 5.4 g/dL | gamma-GTP ([…], time 7 day): 0.8 IU/L | A/G ([…], time 14 day): 0.9 | ALP ([…], time 14 day): 1494.8 IU/L | ALT ([…], time 14 day): 42.4 IU/L | AST ([…], time 14 day): 63.4 IU/L | BUN ([…], time 14 day): 15 mg/dL | CRE ([…], time 14 day): 0.2 mg/dL | Ca ([…], time 14 day): 10.9 mg/dL | Cl ([…], time 14 day): 104.6 meq/L | DBIL ([…], time 14 day): 0.01 mg/dL | GLC ([…], time 14 day): 192.6 mg/dL | IP ([…], time 14 day): 6.8 mg/dL | K ([…], time 14 day): 3.8 meq/L | LDH ([…], time 14 day): 49.4 IU/L | Na ([…], time 14 day): 142.4 meq/L | PL ([…], time 14 day): 157.2 mg/dL | RALB ([…], time 14 day): 2.7 g/dL | TBIL ([…], time 14 day): 0.056 mg/dL | TC ([…], time 14 day): 72 mg/dL | TG ([…], time 14 day): 136.8 mg/dL | TP ([…], time 14 day): 5.9 g/dL | gamma-GTP ([…], time 14 day): 1 IU/L | A/G ([…], time 28 day): 0.8 | ALP ([…], time 28 day): 1194 IU/L | ALT ([…], time 28 day): 36.5 IU/L | AST ([…], time 28 day): 59 IU/L | BUN ([…], time 28 day): 17.2 mg/dL | CRE ([…], time 28 day): 0.3 mg/dL | Ca ([…], time 28 day): 10.8 mg/dL | Cl ([…], time 28 day): 105.2 meq/L | DBIL ([…], time 28 day): 0.01 mg/dL | GLC ([…], time 28 day): 203.2 mg/dL | IP ([…], time 28 day): 6.5 mg/dL | K ([…], time 28 day): 3.7 meq/L | LDH ([…], time 28 day): 53.5 IU/L | Na ([…], time 28 day): 143.2 meq/L | PL ([…], time 28 day): 132 mg/dL | RALB ([…], time 28 day): 2.7 g/dL | TBIL ([…], time 28 day): 0.05 mg/dL | TC ([…], time 28 day): 58.2 mg/dL | TG ([…], time 28 day): 111.5 mg/dL | TP ([…], time 28 day): 6 g/dL | gamma-GTP ([…], time 28 day): 1 IU/L
